Data reported in patent publication US20120245137A1 (Zalicus Pharmaceuticals Ltd., priority 2009, published 2012).
Where two headings read alike, the source gives them in different places.

How the values were obtained:
Type in all cases: cell-based
[1] = biological target: N-type calcium channel subunits (α1B, α2δ, and β3a) (Homo sapiens, UniProt Q00975); assay: Block of Cav2.2 channel, whole cell voltage clamp, manual and PatchXpress; details: Table 5; table follows Assay Example 3 (whole cell voltage clamp / PatchXpress); assay not given
Procedure: Cells are grown either on poly-D-lysine coated coverglass (manual EP) or in TIS culture plates (PatchXpress). For the PatchExpress, cells are released from the flask using trypsin. In both cases, the […] solution is (in mM): 130 […], 10 EGTA, 10 HEPES, 2 MgCl2, 3 MgATP, pH 7.3 with CsOH.
Microelectrodes are fabricated from borosilicate glass and fire-polished. […] The reference electrode is a silver-silver chloride pellet. Voltages are not corrected for the liquid junction potential between the internal and external solutions and leak is subtracted using the P/n procedure. Solutions are applied to cells by bath perfusion via gravity. The experimental chamber volume is—0.2 mL. and the perfusion rate is 0.5-2 mL/min. Flow of suction through the chamber is maintained at all times. Measurement of current amplitudes is performed with […] software (HEKA Elektronik).
PatchXpress (Molecular Devices) is a 16-well whole-cell automated patch clamp device that operates asynchronously with fully integrated fluidics. […] Capacitance and series resistance compensation is automated. No correction for liquid junction potentials is employed. Leak is subtracted using the P/n procedure. Compounds are added to cells with a pipettor from a 96-well compound plate. Voltage protocols and the recording of membrane currents are performed using the PatchXpress software/hardware system. Current amplitudes are calculated with DataXpress software.
In both manual and automated patch clamp, cells are voltage clamped at […] or −90 m V and 50 ms pulses to +20 mV are applied every 15 sec (0.067 Hz). Compounds are added in escalating doses to measure % inhibition. Percent inhibition is calculated from the ratio of the curerent amplitude in the presence and absence of compound. When multiple doses are achieved per cell, IC50 values are calculated.

Human Cav 2.2 channels = Human Cav 2.2 channels (Homo sapiens, UniProt Q00975); assay: Fluorescent assay for CaV2.2 channels using potassium depolarization (VIPR/FLIPR); details: FLIPR data; for CAv2.2 IC50 Ratio closed/inact.: ratio closed/inactivated IC50
Excerpt: Human Cav 2.2 channels were stably expressed in HEK293 cells along with alpha2-delta and beta subunits of voltage-gated calcium channels. An inwardly rectifying potassium channel (Kir2.3) was also expressed in these cells to allow more precise control of the cell membrane potential by extracellular potassium concentration. At low bath potassium concentration, the membrane potential is relatively negative, and is depolarized as the bath potassium concentration is raised. In this way, the bath potassium concentration can be used to regulate the voltage-dependent conformations of the channels. […] After the incubation period, Cav2.2 channel opening is triggered by addition of higher concentration of potassium (70 mM final concentration) to further depolarize the cell. The degree of state-dependent block can be estimated from the inhibitory potency of compounds after incubation in different potassium concentrations.
Calcium influx through Cav 2.2 channels is determined using a calcium sensitive fluorescent dye in combination with a fluorescent plate reader. Fluorescent changes were measured with either a VIPR (Aurora Instruments) or FLIPR (Molecular Devices) plate reader.
1. Seed cells in Poly-D-Lysine Coated 96 or 384-well plate and keep in a 3rC-IO % C02 incubator overnight.
2. Remove media, wash cells with 0.2 mL (96-well plate) or 0.05 mL (384-well plate) Dulbecco's Phosphate Buffered Saline (D-PBS) with calcium & magnesium (Invitrogen; 14040).
3. Add 0.1 mL (96-well plate) or 0.05 mL (384-well plate) of 4˜M fluor-4 (Molecular Probes; F-14202) and 0.02% Pluronic acid (Molecular Probes; P-3(00) prepared in D-PBS with calcium & magnesium (Invitrogen; 14040) supplemented with 10 mM Glucose & 10 mM HepeslNaOH; pH 7.4.
4. Incubate in the dark at 25° C. for 60-70 min.
5. Remove dye, wash cells with 0.1 mL (96-well plate) or 0.06 mL (384-well plate) of 4, 12, 25, or 30 mM Potassium Pre-polarization Buffer (PPB).
6. Add 0.1 mL (96-well plate) or 0.03 mL (384-well plate) of 4, 12, 25, 30 mM PPB with or without test compound.
7. Incubate in the dark at 25° C. for 30 min
8. Read cell plate on VIPR instrument, Excitation=480 nm, Emission=535 nm.
9. With VIPR continuously reading, add 0.1 mL (96-well plate) or 0.03 mL (384-well plate) of Depolarization Buffer (DB), which is 2× the final assay concentration, to the cell plate.

T-type calcium channel = T-type calcium channel (Homo sapiens, UniProt O95180); assay: T-type channel blocking, FLIPR data (Table 6); details: for CAv3.2 IC50 Ratio closed/inact.: CAv3.2, ratio closed/inactivated IC50
Excerpt: Another method, high-throughput spectrophotometric assay, utilizes loading of the cell lines with a fluorescent dye sensitive to intracellular calcium concentration and subsequent examination of the effects of compounds on the ability of depolarization by potassium chloride or other means to alter intracellular calcium levels.

CAv1.2 = CAv1.2 (Homo sapiens, UniProt Q13936); assay: FLIPR data, CAv1.2 channel blocking (Table 6)
[2] = closed state, read-out: CAv2.2 IC50 Closed
[3] = inactivated state, read-out: CAv2.2 IC50 Inact.
[4] = CAv3.2, inactivated state, read-out: CAv3.2 IC50 Inact.
[5] = closed state, read-out: CAv1.2 IC50 Closed
[6] = inactivated state, read-out: CAv1.2 IC50 Inact.
[7] = CAv3.2, closed state, read-out: CAv3.2 IC50 Closed

Chain of N-type calcium channel subunits (α1B, α2δ, and β3a) (Q00975 whole entry): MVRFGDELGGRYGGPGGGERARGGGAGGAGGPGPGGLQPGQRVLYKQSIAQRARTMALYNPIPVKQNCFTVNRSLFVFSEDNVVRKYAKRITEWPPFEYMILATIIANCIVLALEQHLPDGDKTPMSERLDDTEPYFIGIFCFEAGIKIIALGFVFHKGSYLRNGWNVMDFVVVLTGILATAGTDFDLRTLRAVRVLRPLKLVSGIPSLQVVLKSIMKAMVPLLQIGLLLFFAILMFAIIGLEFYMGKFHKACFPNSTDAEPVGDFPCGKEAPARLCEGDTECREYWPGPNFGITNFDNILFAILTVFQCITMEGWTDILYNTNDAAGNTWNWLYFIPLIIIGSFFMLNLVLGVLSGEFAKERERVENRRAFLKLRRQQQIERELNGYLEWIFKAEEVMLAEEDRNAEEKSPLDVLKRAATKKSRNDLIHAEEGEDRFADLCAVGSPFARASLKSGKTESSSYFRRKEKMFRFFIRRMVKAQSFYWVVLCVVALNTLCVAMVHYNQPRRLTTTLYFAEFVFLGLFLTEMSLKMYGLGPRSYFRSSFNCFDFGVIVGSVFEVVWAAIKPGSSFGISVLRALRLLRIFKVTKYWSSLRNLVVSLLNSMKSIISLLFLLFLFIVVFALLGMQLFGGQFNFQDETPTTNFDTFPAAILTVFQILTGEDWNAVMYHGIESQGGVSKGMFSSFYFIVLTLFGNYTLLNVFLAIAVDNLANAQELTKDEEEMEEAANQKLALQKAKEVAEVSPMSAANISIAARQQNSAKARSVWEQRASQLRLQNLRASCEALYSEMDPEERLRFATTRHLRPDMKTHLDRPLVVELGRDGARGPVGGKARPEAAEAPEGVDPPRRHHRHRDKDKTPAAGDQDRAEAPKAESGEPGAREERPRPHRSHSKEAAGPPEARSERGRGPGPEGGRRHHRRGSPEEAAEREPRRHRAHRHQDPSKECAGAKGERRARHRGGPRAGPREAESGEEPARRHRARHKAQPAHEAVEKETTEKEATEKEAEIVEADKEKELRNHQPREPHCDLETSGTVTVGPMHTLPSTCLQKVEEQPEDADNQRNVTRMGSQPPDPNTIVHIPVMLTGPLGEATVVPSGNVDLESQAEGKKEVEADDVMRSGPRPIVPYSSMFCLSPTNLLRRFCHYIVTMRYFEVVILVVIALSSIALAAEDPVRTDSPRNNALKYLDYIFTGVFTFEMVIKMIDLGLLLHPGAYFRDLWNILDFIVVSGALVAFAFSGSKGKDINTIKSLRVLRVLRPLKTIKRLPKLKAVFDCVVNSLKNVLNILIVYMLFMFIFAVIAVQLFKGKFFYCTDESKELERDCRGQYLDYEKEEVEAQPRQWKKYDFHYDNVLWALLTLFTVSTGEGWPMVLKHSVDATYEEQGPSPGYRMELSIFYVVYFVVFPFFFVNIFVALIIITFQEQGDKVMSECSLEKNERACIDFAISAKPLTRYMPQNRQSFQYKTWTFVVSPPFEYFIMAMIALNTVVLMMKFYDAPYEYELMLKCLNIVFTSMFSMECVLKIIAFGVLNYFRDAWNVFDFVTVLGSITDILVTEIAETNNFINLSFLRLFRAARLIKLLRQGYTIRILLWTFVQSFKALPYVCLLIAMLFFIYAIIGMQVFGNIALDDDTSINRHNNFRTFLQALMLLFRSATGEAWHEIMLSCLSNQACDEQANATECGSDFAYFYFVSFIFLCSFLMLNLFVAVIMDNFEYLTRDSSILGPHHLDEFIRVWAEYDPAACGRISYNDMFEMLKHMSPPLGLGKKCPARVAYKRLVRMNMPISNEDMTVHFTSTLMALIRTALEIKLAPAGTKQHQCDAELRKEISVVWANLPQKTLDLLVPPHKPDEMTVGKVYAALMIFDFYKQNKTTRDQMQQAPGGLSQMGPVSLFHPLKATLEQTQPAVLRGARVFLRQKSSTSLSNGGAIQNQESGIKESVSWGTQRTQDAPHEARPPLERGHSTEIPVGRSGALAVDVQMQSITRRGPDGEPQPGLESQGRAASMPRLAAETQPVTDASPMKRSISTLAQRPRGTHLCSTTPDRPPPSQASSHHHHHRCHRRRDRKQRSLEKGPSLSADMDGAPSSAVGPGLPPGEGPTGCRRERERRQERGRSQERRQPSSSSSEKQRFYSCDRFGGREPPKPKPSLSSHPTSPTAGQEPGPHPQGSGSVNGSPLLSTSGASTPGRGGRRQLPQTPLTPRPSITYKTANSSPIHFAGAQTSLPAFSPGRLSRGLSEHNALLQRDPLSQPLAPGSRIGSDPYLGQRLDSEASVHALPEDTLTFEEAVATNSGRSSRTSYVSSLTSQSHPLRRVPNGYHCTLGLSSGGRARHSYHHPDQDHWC
Chain of N-type calcium channel subunits (α1B, α2δ, and β3a) (P54289 25-1103 partner): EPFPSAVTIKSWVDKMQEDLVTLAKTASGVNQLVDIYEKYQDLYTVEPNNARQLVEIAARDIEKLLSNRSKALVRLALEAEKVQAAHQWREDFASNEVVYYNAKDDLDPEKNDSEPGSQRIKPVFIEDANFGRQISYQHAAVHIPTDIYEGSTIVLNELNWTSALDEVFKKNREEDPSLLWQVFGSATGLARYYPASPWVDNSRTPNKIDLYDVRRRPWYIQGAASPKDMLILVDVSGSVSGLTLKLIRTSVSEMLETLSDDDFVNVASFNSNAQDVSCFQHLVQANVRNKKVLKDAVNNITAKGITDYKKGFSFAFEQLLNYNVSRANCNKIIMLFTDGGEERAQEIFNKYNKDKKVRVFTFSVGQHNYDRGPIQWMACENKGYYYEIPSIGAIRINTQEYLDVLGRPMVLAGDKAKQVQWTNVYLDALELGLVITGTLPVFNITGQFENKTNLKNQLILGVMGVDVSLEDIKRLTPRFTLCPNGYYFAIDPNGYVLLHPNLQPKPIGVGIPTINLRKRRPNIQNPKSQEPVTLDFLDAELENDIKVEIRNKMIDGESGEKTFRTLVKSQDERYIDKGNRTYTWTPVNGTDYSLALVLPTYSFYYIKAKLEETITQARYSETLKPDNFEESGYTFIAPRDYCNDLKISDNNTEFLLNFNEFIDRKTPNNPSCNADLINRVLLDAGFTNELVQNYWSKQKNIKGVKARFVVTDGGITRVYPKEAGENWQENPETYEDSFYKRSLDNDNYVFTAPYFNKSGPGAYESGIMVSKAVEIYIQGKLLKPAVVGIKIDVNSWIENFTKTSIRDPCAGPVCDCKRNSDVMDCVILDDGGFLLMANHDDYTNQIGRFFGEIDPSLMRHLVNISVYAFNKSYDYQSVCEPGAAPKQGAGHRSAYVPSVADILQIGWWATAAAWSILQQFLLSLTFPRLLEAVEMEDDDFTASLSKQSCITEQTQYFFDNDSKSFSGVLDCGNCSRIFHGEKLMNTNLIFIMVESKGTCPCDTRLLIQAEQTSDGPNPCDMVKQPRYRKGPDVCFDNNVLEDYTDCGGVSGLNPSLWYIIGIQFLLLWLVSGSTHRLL
Chain of N-type calcium channel subunits (α1B, α2δ, and β3a) (P54284 whole entry partner): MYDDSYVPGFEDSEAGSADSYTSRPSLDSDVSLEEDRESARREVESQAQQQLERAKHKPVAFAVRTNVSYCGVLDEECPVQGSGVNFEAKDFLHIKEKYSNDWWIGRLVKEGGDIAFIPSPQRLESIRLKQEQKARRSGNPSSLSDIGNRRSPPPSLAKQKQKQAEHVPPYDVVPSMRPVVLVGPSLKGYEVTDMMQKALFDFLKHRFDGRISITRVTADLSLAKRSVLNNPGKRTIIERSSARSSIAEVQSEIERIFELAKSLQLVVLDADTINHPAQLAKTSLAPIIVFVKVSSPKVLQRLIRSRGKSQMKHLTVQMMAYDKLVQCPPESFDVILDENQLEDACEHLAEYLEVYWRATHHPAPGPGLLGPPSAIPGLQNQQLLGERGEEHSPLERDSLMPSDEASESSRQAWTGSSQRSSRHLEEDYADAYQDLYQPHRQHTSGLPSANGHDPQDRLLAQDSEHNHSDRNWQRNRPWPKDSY
Chain of Human Cav 2.2 channels (Q00975 whole entry): as the sequence (Q00975 whole entry) above
Chain of Human Cav 2.2 channels (P54289 25-1103 partner): as the sequence (P54289 25-1103 partner) above
Chain of Human Cav 2.2 channels (P54284 whole entry partner): as the sequence (P54284 whole entry partner) above

Row | IC50 (Human Cav 2.2 channels; [2]) [µM] | IC50 (Human Cav 2.2 channels; [3]) [µM] | CAv2.2 IC50 Ratio closed/inact. (Human Cav 2.2 channels) | IC50 (T-type calcium channel; [4]) [µM] | IC50 (T-type calcium channel; [7]) [µM] | CAv3.2 IC50 Ratio closed/inact. (T-type calcium channel) | Compound | IC50 [1] [nM] | IC50 (CAv1.2; [5]) [µM] | IC50 (CAv1.2; [6]) [µM] | CAv1.2 IC50 Ratio closed/inact. (CAv1.2; ratio closed/inactivated IC50)
1 | 5.77 | 2.29 | 2.5 | 10 | ≥ 10 | 1 | N[C@@H]1CCCC[C@H]1C(=O)NC[C@H]1C[C@H](S(=O)(=O)c2cccc(OC(F)(F)F)c2)C1 [Compound 714] | – | ≥ 10 | – | –
2 | 10 | 1.38 | 7.2 | 7.51 | ≥ 10 | 1.3 | CS(=O)(=O)c1cc(Cl)ccc1C(=O)NC[C@H]1C[C@H](S(=O)(=O)c2cc(F)cc(C(F)(F)F)c2)C1 [Compound 715] | – | ≥ 10 | ≥ 10 | –
3 | 8.63 | 0.49 | 17.6 | 9.98 | ≥ 10 | 1 | CC(C)(C[C@H]1C[C@H](NC(=O)c2ncc(C(F)(F)F)cc2S(C)(=O)=O)C1)S(=O)(=O)c1cccc(C(F)(F)F)c1 [Compound 717] | – | ≥ 10 | ≥ 10 | –
4 | 2.77 | 0.9 | 3.1 | 10 | ≥ 10 | 1 | CC(C)(C[C@H]1C[C@H](NC(=O)CC2(N)CCCCC2)C1)S(=O)(=O)c1cccc(C(F)(F)F)c1 [Compound 726] | – | ≥ 10 | ≥ 10 | –
5 | 4.1 | 0.95 | 4.3 | 10 | – | – | CC(C)(C[C@H]1C[C@H](NC(=O)[C@@H]2CCCC[C@@H]2N)C1)S(=O)(=O)c1cccc(C(F)(F)F)c1 [Compound 727] | – | – | ≥ 10 | –
6 | 3.64 | 1.56 | 2.3 | 10 | – | – | CC(C)(C[C@H]1C[C@H](NC(=O)[C@@H]2CCCC[C@H]2N)C1)S(=O)(=O)c1cccc(C(F)(F)F)c1 [Compound 728] | – | ≥ 10 | – | –
7 | 9.1 | 0.46 | 19.8 | 10 | ≥ 10 | 1 | CC(C)(C[C@H]1C[C@@H](NC(=O)c2ncc(C(F)(F)F)cc2S(C)(=O)=O)C1)S(=O)(=O)c1cccc(C(F)(F)F)c1 [Compound 730] | – | ≥ 10 | ≥ 10 | –
8 | 2.89 | 1 | 2.9 | 10 | ≥ 10 | 1 | CC(C)(C[C@H]1C[C@@H](NC(=O)CC2(N)CCCCC2)C1)S(=O)(=O)c1cccc(C(F)(F)F)c1 [Compound 739] | – | 8.86 | ≥ 10 | 0.9

The remaining lines, values behind:

Row | Compound | IC50 (Human Cav 2.2 channels; [2]) [µM] | IC50 (Human Cav 2.2 channels; [3]) [µM] | CAv2.2 IC50 Ratio closed/inact. (Human Cav 2.2 channels) | IC50 (T-type calcium channel; [4]) [µM] | IC50 (T-type calcium channel; [7]) [µM] | CAv3.2 IC50 Ratio closed/inact. (T-type calcium channel) | IC50 [1] [nM] | IC50 (CAv1.2; [5]) [µM] | IC50 (CAv1.2; [6]) [µM] | CAv1.2 IC50 Ratio closed/inact. (CAv1.2; ratio closed/inactivated IC50)
9 | 2-(methylsulfonyl)-6-(trifluoromethyl)- N-(((1S,3S)-3- (3-(trifluoromethyl) phenylsulfonyl)cyclobutyl) methyl)nicotinamide [Compound 382] | – | – | – | – | – | – | 1710 | – | – | –
10 | 2-chloro-6-(trifluoromethyl)-N- ((1R,4R)-4-(3- (tritluoromethyl)phenylsulfonyl) cyclohexyl)nicotinamide [Compound 187] | – | – | – | – | – | – | 7000 | – | – | –
11 | 2-chloro-6-(trifluoromethyl)-N- ((1S,4S)-4-(3- (trifluoromethyl)phenylsulfonyl) cyclohexyl)nicotinamide [Compound 200] | – | – | – | – | – | – | 1020 | – | – | –
12 | 2-fluoro-N-((1R,4R)-4-(3- (trifluoromethyl)phenylsulfonyl) cyclohexyl)isonicotinamide [Compound 188] | – | – | – | – | – | – | 5610 | – | – | –
13 | 3-(methylsulfonyl)-5-(trifluoromethyl)- N-(((1S,3S)- 3-(3-(trifluoromethyl) phenylsulfonyl)cyclobutyl) methyl)picolinamide [Compound 388] | – | – | – | – | – | – | 1060 | – | – | –
14 | 4,5-dichloro-N-((1R,4R)-4-(3- (trifluoromethyl)phenylsulfonyl) cyclohexyl)isothiazole-3- carboxamide [Compound 183] | – | – | – | – | – | – | 1990 | – | – | –
15 | CNC1(CC(=O)N[C@H]2C[C@H](C(C)(C)S(=O)(=O)c3cc(F)cc(C(F)(F)F)c3)C2)CCCCC1 [Compound 659] | 9.71 | 1.93 | 5 | 10 | – | – | – | ≥ 10 | ≥ 10 | –
16 | CNC1(CC(=O)N[C@H]2C[C@@H](C(C)(C)S(=O)(=O)c3cccc(OC(F)(F)F)c3)C2)CCCCC1 [Compound 661] | 8.03 | 1.53 | 5.2 | 10 | – | – | – | ≥ 10 | ≥ 10 | –
17 | CNC1(CC(=O)N[C@H]2C[C@H](C(C)(C)S(=O)(=O)c3cccc(OC(F)(F)F)c3)C2)CCCCC1 [Compound 662] | 5.65 | 1.25 | 4.5 | 10 | – | – | – | ≥ 10 | ≥ 10 | –
18 | O=C(NC[C@H]1C[C@H](S(=O)(=O)c2cccc(OC(F)(F)F)c2)C1)c1ccnc(C(F)(F)F)n1 [Compound 697] | 3.78 | 0.71 | 5.3 | 8.91 | ≥ 10 | 1.1 | – | ≥ 10 | ≥ 10 | –
19 | O=C(NC[C@H]1C[C@H](S(=O)(=O)c2cccc(OC(F)(F)F)c2)C1)c1ccc(OCC(F)(F)F)nc1 [Compound 699] | 7.86 | – | 3.1 | – | ≥ 10 | 1 | – | ≥ 10 | – | –
20 | CS(=O)(=O)c1cc(C(F)(F)F)cnc1C(=O)NC[C@H]1C[C@H](S(=O)(=O)c2cc(F)cc(C(F)(F)F)c2)C1 [Compound 701] | 10 | 2.21 | 4.5 | 10 | – | – | – | – | ≥ 10 | –
21 | NC1(CC(=O)NC[C@H]2C[C@H](S(=O)(=O)c3cc(F)cc(C(F)(F)F)c3)C2)CCCCC1 [Compound 708] | 7.67 | 3.03 | 2.5 | 10 | – | – | – | ≥ 10 | ≥ 10 | –
22 | N[C@H]1CCCCC1C(=O)NC[C@H]1C[C@H](S(=O)(=O)c2cccc(OC(F)(F)F)c2)C1 (some centres unmarked) [Compound 709] | 7.5 | 2.34 | 3.2 | 10 | ≥ 10 | 1 | – | ≥ 10 | – | –
23 | N[C@H]1CCCC[C@@H]1C(=O)NC[C@H]1C[C@H](S(=O)(=O)c2cc(F)cc(C(F)(F)F)c2)C1 [Compound 712] | 10 | 6.02 | 1.7 | 10 | – | – | – | ≥ 10 | ≥ 10 | –
